Assay results reported in patent US20120149678A1, “Organonitro Compounds for Use in Treating Non-Hodgkin's Lymphoma and Leukemia, and Methods Relating Thereto” (priority 2010, published 2012).

System: B-cell lymphoma Daudi cells
Assay: ABDNAZ-induced apoptosis of B-cell lymphoma Daudi cells (sub-G1 cells, propidium iodide staining, flow cytometry)
Format: cell-based
Method: B-cell lymphoma Daudi cells were grown and maintained in Dulbecco's modified essential medium (DMEM) (INVITROGEN™, Grand Island, N.Y.) supplemented with 10% fetal calf serum, 100 units/mL penicillin, and 100 μg/mL streptomycin in a 37° C. humidified incubator with a mixture of 95% air and 5% CO2. Experiments were performed on exponentially growing cells with a cell population doubling time of approximately 20-36 hours.
After exposing the B-cell lymphoma Daudi cells to ABDNAZ, apoptotic cell death was quantitated by measuring the number of subdiploid (sub-G1) cells stained with propidium iodide (PI), according to a procedure described previously by Ning and coworkers. Ning, S., and Knox, S. J. in Int. J. Radiat. Oncol. Biol. Phys. (2004) 60:197-203. Briefly, ABDNAZ-treated and untreated control cells were collected and fixed with cold 100% ethanol. Cells were pelleted, treated with 100 μg/mL of RNase A in PBS-EDTA solution for 30 min and stained with 50 μg/mL of PI for 10 min at room temperature. The DNA content was analyzed with a FACScan flowcytometer (Becton Dickison, San Jose, Calif.). The percentage of cells in the sub-G1 phase was calculated as described previously by Ning and coworkers.
To examine whether ABDNAZ-induced apoptotic cell death was due to the generation of reactive oxygen species (ROS), Daudi cells were treated with a glutathione (GSH) precursor, N-acetylcysteine (NAC), and a GSH synthesis inhibitor, buthionine-(S,R)-sulfoxime (BSO), and the level of apoptosis was measured.

Question: How did the Daudi cell apoptosis (2 mM ABDNAZ, measured at 24 hours (FIG. 1)) turn out when `O=C(CBr)N1CC([N+](=O)[O-])([N+](=O)[O-])C1` [ABDNAZ, 1-bromoacetyl-3,3-dinitroazetidine] was run?
Answer: 30%

Question: What about the Daudi cell apoptosis (4 mM ABDNAZ, measured at 72 hours after exposure (FIG. 1)) of the same compound?
Answer: 45%

Question: And the ABDNAZ-induced apoptosis (Daudi cells pre-treated with N-acetylcysteine (GSH precursor) (FIG. 2))?
Answer: 5%

Question: And the ABDNAZ-induced apoptosis (Daudi cells pre-treated with buthionine-(S,R)-sulfoxime (GSH synthesis inhibitor) (FIG. 2))?
Answer: 25%

Question: And the ABDNAZ-induced apoptosis (Daudi cells, ABDNAZ without pre-treatment (FIG. 2))?
Answer: 11%
